{
  "source": "ChEMBL document CHEMBL4433229",
  "about": "“Development of novel macrocyclic small molecules that target CTG trinucleotide repeats” (Bioorg Med Chem, 2019)",
  "key": {"[1]": {"assay": "Inhibition of MBNL1 binding to r(CUG)12 RNA sequence (unknown origin) assessed as inhibition constant by gel electrophoresis mobility shift assay"}, "[2]": {"assay": "Binding affinity to d(CTG)2 DNA sequence (unknown origin) assessed as equilibrium dissociation constant by isothermal titration method"}, "[3]": {"assay": "Binding affinity to r(CUG)4 RNA sequence (unknown origin) assessed as equilibrium dissociation constant by isothermal titration method"}, "HeLa [4]": {"system": "HeLa", "assay": "Cytotoxicity against human HeLa cells assessed as reduction in cell viability at 6 uM after 72 hrs by SRB assay relative to control", "assay_type": "cell-based"}, "[5]": {"assay": "Binding affinity to d(CTG) duplex DNA sequence (unknown origin) assessed as equilibrium dissociation constant by isothermal titration method"}, "DNA [6]": {"system": "DNA", "assay": "Inhibition of random DNA sequence (unknown origin) transcription at 0 to 50 uM pre-incubated for 3 hrs followed by addition of T7 polymerase and measured after 1.5 hrs by PAGE analysis", "assay_type": "nucleic-acid assay"}, "HeLa [7]": {"system": "HeLa", "assay": "Cytotoxicity against human HeLa cells assessed as reduction in cell viability after 72 hrs by SRB assay relative to control", "assay_type": "cell-based"}, "[8]": {"assay": "Potency index, ratio of transcription inhibition of NC to transcription inhibition of compounds for d(CTG.CAG)74 DNA sequence by PAGE analysis"}, "DNA [9]": {"system": "DNA", "assay": "Inhibition of random DNA sequence (unknown origin) transcription at 100 uM pre-incubated for 3 hrs followed by addition of T7 polymerase and measured after 1.5 hrs by PAGE analysis", "assay_type": "nucleic-acid assay"}, "HeLa [10]": {"system": "HeLa", "assay": "Cytotoxicity against human HeLa cells assessed as reduction in cell viability at 0.2 to 100 uM after 72 hrs by SRB assay relative to control", "assay_type": "cell-based"}, "[11]": {"assay": "Inhibition of d(CTG.CAG)74 DNA sequence (unknown origin) transcription at 25 uM pre-incubated for 3 hrs followed by addition of T7 polymerase and measured after 1.5 hrs by PAGE analysis"}, "[12]": {"assay": "Binding affinity to d(CTG) A-A DNA sequence (unknown origin) assessed as equilibrium dissociation constant by isothermal titration method"}, "[13]": {"assay": "Binding affinity to d(CTG) U-U DNA sequence (unknown origin) assessed as equilibrium dissociation constant by isothermal titration method"}, "[14]": {"assay": "Binding affinity to d(CTG) T-T DNA sequence (unknown origin) assessed as equilibrium dissociation constant by isothermal titration method", "details": "read-out: Kd(app)"}, "[15]": {"assay": "Binding affinity to d(CTG) C-C DNA sequence (unknown origin) assessed as equilibrium dissociation constant by isothermal titration method", "details": "for Kd: read-out: Kd(app)"}, "[16]": {"assay": "Inhibition of d(CTG.CAG)74 DNA sequence (unknown origin) transcription at 6 uM pre-incubated for 3 hrs followed by addition of T7 polymerase and measured after 1.5 hrs by PAGE analysis"}, "DNA [17]": {"system": "DNA", "assay": "Inhibition of random DNA sequence (unknown origin) transcription at 25 uM pre-incubated for 3 hrs followed by addition of T7 polymerase and measured after 1.5 hrs by PAGE analysis", "assay_type": "nucleic-acid assay"}, "[18]": {"assay": "Selectivity ratio of cytotoxicity of compound to cytotoxicity of NC for human HeLa cells", "assay_type": "cell-based"}, "[19]": {"assay": "Binding affinity to r(CUG)12 RNA sequence (unknown origin) assessed as equilibrium dissociation constant by isothermal titration method"}, "[20]": {"assay": "Selectivity ratio of transcription inhibition of random DNA sequence (unknown origin) to transcription inhibition of d(CTG.CAG)74 DNA sequence (unknown origin) by PAGE analysis"}, "DNA [21]": {"system": "DNA", "assay": "Inhibition of random DNA sequence (unknown origin) transcription at 50 uM pre-incubated for 3 hrs followed by addition of T7 polymerase and measured after 1.5 hrs by PAGE analysis", "assay_type": "nucleic-acid assay"}, "HeLa [22]": {"system": "HeLa", "assay": "Cytotoxicity against human HeLa cells assessed as reduction in cell viability at 25 uM after 72 hrs by SRB assay relative to control", "assay_type": "cell-based"}, "[23]": {"assay": "Binding affinity to d(CTG) T-T DNA sequence (unknown origin) assessed as mole fraction of compound required to show 1:1 stoichiometry for compound-DNA complex at 50 uM by Job's plot analysis"}, "[24]": {"assay": "Binding affinity to d(CTG) T-T DNA sequence (unknown origin) assessed as mole fraction of compound required to show 2:1 stoichiometry for compound-DNA complex at 50 uM by Job's plot analysis"}, "[25]": {"assay": "Binding affinity to d(CTG) T-T 3 DNA sequence (unknown origin) assessed as equilibrium dissociation constant by isothermal titration method"}, "[26]": {"assay": "Binding affinity to d(CTG) T-T DNA sequence (unknown origin) assessed as mole fraction of compound required to show 1.3:1 stoichiometry for compound-DNA complex at 50 uM by Job's plot analysis"}, "[27]": {"assay": "Displacement of ethidium from d(CTG)2 DNA sequence (unknown origin) and measured by fluorescence method relative to NC"}, "[28]": {"assay": "Binding affinity to d(CTG) T-T 2 DNA sequence (unknown origin) assessed as equilibrium dissociation constant by isothermal titration method"}},
  "note": "Active and inactive are the calls of the source. The rule behind the calls is not given here.",
  "data": [
    {"smiles": "COc1ccc2nc3cc(Cl)ccc3c(NCCCCNc3nc(N)nc(N)n3)c2c1", "values": [
      {"measurement": "Ki", "setting": "[1]", "result": 6, "unit": "µM"},
      {"measurement": "Kd", "setting": "[2]", "result": "0.3 to 0.4", "unit": "µM"},
      {"measurement": "Kd", "setting": "[3]", "result": "0.3 to 0.4", "unit": "µM"}
    ]},
    {"smiles": "Nc1nc2nc(n1)NCCCNC(=O)c1cccc3c(c4ccccc4nc13)NCCCCN2", "values": [
      {"measurement": "Activity", "setting": "HeLa [4]", "result": "< 10", "unit": "%"},
      {"measurement": "Kd(app)", "setting": "[5]", "result": "inactive"},
      {"measurement": "inhibition", "setting": "DNA [6]", "result": "< 10", "unit": "%"},
      {"measurement": "IC50", "setting": "HeLa [7]", "result": 20, "unit": "µM"},
      {"measurement": "Selectivity ratio", "setting": "[8]", "result": 4},
      {"measurement": "inhibition", "setting": "DNA [9]", "result": "< 20", "unit": "%"},
      {"measurement": "Activity", "setting": "HeLa [10]", "result": "Toxic"},
      {"measurement": "inhibition", "setting": "[11]", "result": 85, "unit": "%"},
      {"measurement": "Kd(app)", "setting": "[12]", "result": "inactive"},
      {"measurement": "Kd(app)", "setting": "[13]", "result": "inactive"},
      {"measurement": "Kd", "setting": "[14]", "result": 19.8, "unit": "µM"},
      {"measurement": "Kd(app)", "setting": "[15]", "result": "inactive"},
      {"measurement": "inhibition", "setting": "[16]", "result": 45, "unit": "%"},
      {"measurement": "inhibition", "setting": "DNA [17]", "result": -0, "unit": "%"},
      {"measurement": "selectivity ratio", "setting": "[18]", "result": 10}
    ]},
    {"smiles": "N=C(NCCCCNc1nc(N)nc(N)n1)c1ccc(C(=N)NCCCCNc2nc(N)nc(N)n2)cc1", "values": [
      {"measurement": "Ki", "setting": "[19]", "result": 8, "unit": "µM"},
      {"measurement": "Ki", "setting": "[1]", "result": 8, "unit": "µM"}
    ]},
    {"smiles": "CNC(=O)c1cccc2c(NCCCCNc3nc(N)nc(N)n3)c3ccccc3nc12", "values": [
      {"measurement": "Kd", "setting": "[5]; read-out: Kd(app)", "result": 69, "unit": "µM"},
      {"measurement": "Selectivity ratio", "setting": "[20]", "result": 3},
      {"measurement": "inhibition", "setting": "[11]", "result": 35, "unit": "%"},
      {"measurement": "Kd", "setting": "[13]; read-out: Kd(app)", "result": 17.9, "unit": "µM"},
      {"measurement": "Kd", "setting": "[14]", "result": 5.8, "unit": "µM"},
      {"measurement": "inhibition", "setting": "DNA [21]", "result": 45, "unit": "%"},
      {"measurement": "Kd", "setting": "[15]", "result": 159, "unit": "µM"}
    ]},
    {"smiles": "Nc1nc2nc(n1)NCCCNc1c3ccccc3nc3c(cccc13)C(=O)NCCCN2", "values": [
      {"measurement": "Kd(app)", "setting": "[5]", "result": "inactive"},
      {"measurement": "Selectivity ratio", "setting": "[20]", "result": 3},
      {"measurement": "Activity", "setting": "HeLa [22]", "result": "Non-Toxic"},
      {"measurement": "Selectivity ratio", "setting": "[8]", "result": 4},
      {"measurement": "inhibition", "setting": "DNA [9]", "result": 45, "unit": "%"},
      {"measurement": "Activity (mole fraction)", "setting": "[23]", "result": 0.5},
      {"measurement": "Activity (mole fraction)", "setting": "[24]", "result": 0.68},
      {"measurement": "Kd", "setting": "[25]", "result": 15.1, "unit": "µM"},
      {"measurement": "Activity (mole fraction)", "setting": "[26]", "result": 0.57},
      {"measurement": "inhibition", "setting": "[11]", "result": 60, "unit": "%"},
      {"measurement": "Activity", "setting": "[27]", "result": "Active"},
      {"measurement": "Kd(app)", "setting": "[12]", "result": "inactive"},
      {"measurement": "Kd(app)", "setting": "[13]", "result": "inactive"},
      {"measurement": "Kd", "setting": "[14]", "result": 18.1, "unit": "µM"},
      {"measurement": "Kd(app)", "setting": "[15]", "result": "inactive"},
      {"measurement": "Kd", "setting": "[28]", "result": 19.8, "unit": "µM"},
      {"measurement": "selectivity ratio", "setting": "[18]", "result": 10}
    ]},
    {"smiles": "Nc1nc2nc(n1)NCCCNc1c3ccccc3nc3c(cccc13)C(=O)NCCCCN2", "values": [
      {"measurement": "Kd(app)", "setting": "[5]", "result": "inactive"},
      {"measurement": "Selectivity ratio", "setting": "[20]", "result": 3},
      {"measurement": "IC50", "setting": "HeLa [7]", "result": "> 100", "unit": "µM"},
      {"measurement": "Selectivity ratio", "setting": "[8]", "result": 4},
      {"measurement": "inhibition", "setting": "[11]", "result": 60, "unit": "%"},
      {"measurement": "Kd(app)", "setting": "[12]", "result": "inactive"},
      {"measurement": "Kd(app)", "setting": "[13]", "result": "inactive"},
      {"measurement": "Kd", "setting": "[14]", "result": 34.9, "unit": "µM"},
      {"measurement": "inhibition", "setting": "DNA [21]", "result": 45, "unit": "%"},
      {"measurement": "Kd", "setting": "[15]", "result": 404, "unit": "µM"},
      {"measurement": "selectivity ratio", "setting": "[18]", "result": 10}
    ]},
    {"smiles": "Nc1nc2nc(n1)NCCCCCNc1c3ccccc3nc3c(cccc13)C(=O)NCCCCCN2", "values": [
      {"measurement": "Activity", "setting": "HeLa [10]", "result": "Toxic"},
      {"measurement": "selectivity ratio", "setting": "[18]", "result": 10}
    ]},
    {"smiles": "Nc1nc2nc(n1)NCCCCNc1c3ccccc3nc3c(cccc13)C(=O)NCCCCN2", "values": [
      {"measurement": "Selectivity ratio", "setting": "[20]", "result": 3},
      {"measurement": "Activity", "setting": "HeLa [10]", "result": "Toxic"},
      {"measurement": "selectivity ratio", "setting": "[18]", "result": 10}
    ]}
  ]
}
